Experiments:
[1] = system: C28 colon tumor xenografts; test: C28 colon tumor xenograft, doses and dosing regimen; assay type: in vivo, NOD/SCID mice; settings: from day 2
Method: The effect of multiple doses and dosing regimen of FZD8-Fc (54F03) on the growth of C28 colon tumor xenografts was analyzed. Dissociated C28 cells (10,000 per animal) were injected subcutaneously into 6-8 week old male NOD/SCID mice. On day 2, mice were randomized into 6 groups of 10 animals each. Animals were injected with either control antibody or FZD8-Fc at doses of 1.5 mg/kg (twice a week), 5 mg/kg (once and twice a week) and 15 mg/kg (once and twice a week). Administration of the antibody and FZD8-Fc was performed via injection into the intraperitoneal cavity. Tumor growth was monitored weekly and tumor measurements were initiated once tumors were palpable. Tumors were measured twice a week and tumor volume was determined as described herein.

[2] = system: PN4 tumors; test: Alcian blue staining of treated PN4 tumors; assay type: in vivo, NOD/SCID mice; settings: day 85, vs control antibody or gemcitabine
Method: Increased cell differentiation of PN4 and PN8 tumors with FZD8-Fc treatment. Control and treated tumors from the OMP-PN4 xenograft study described above (Example 3) were harvested at the end of the study (day 85). Tumors were fixed in formalin, embedded in paraffin, and tumor sections of 4 μm thickness were cut. After deparaffinization and hydration, the sections were treated with aqueous acetic acid for 5 minutes at room temperature. The sections were then treated with 1% alcian blue in 3% aqueous acetic acid for 30 minutes and washed with water. Sections were counter-stained in neutral fast red, dehydrated and mounted. Using this method, sialomucins in the tissue samples stain blue and the background appears as pink or red.

[3] = Pharmacokinetics of FZD8-Fc variants in rats; settings: rat, tail vein, 10 mg/kg, plasma
Method: The pharmacokinetics of several FZD8-Fc variants were assessed in rats in a two week pharmacokinetics (PK) study. […] Sprague Dawley rats, five males in each group, were dosed with FZD8-Fc variants via the tail vein at 10 mg/kg and followed for two weeks with samples collected at time points 1, 24, 48, 72, 96, 168, 240, and 336 hours. At each time point, 1 ml of blood was collected into potassium-EDTA tubes and centrifuged. The plasma supernatants were collected and frozen until the samples were analyzed.
The level of FZD8-Fc variant protein present in the plasma at each time point was quantified and the half-life of each FZD8-Fc variant was calculated.

[4] = system: PN4 pancreas tumor; test: PN4 pancreas tumor xenograft, tumor growth; assay type: in vivo, NOD/SCID mice; settings: FZD8-Fc 15 mg/kg i.p. twice weekly, vs control antibody
Method: The anti-tumor activity of FZD8-Fc (54F03) was evaluated in the PN4 pancreas tumor xenograft model. Dissociated OMP-PN4 cells (50,000 per animal) were injected subcutaneously into 6-8 week old male NOD/SCID mice. Tumor growth was monitored weekly and tumor measurements were initiated once tumors were palpable. On day 50, mice with average tumor volumes of 137 mm^3 were randomized into 4 groups of 10 animals each. Animals were injected with either control antibody, FZD8-Fc (15 mg/kg), gemcitabine (2 mg/kg) or a combination of FZD8-Fc and gemcitabine. Administration of the FZD8-Fc and gemcitabine was performed via injection into the intra-peritoneal cavity, once weekly (gemcitabine) or twice weekly (FZD8-Fc). Tumors were measured twice a week and tumor volume was determined using the formula ½(a×b^2); where a=length, and b=breadth. Data are expressed as mean and mean±S.E.M. Group means were compared using Student's two-tailed, unpaired t test.

[5] = system: PN13 tumors; test: CK20 immunohistochemistry of treated PN13 tumors; assay type: in vivo, NOD/SCID mice; settings: vs control antibody
Method: The cell differentiation capability of FZD8-Fc was also evaluated in the OMP-PN13 pancreas tumor xenograft model. Dissociated OMP-PN13 cells (50,000 per animal) were injected subcutaneously into 6-8 week old male NOD/SCID mice. Tumor growth was monitored weekly and tumor measurements were initiated once tumors were palpable. On day 40 mice with average tumor volume of 114 mm^3 were randomized into 4 groups of 10 animals each. Animals were injected with either control antibody or FZD8-Fc (15 mg/kg). Administration of the FZD8-Fc and control antibody was performed via injection into the intraperitoneal cavity, twice weekly. After 19 days of treatment, the tumors were excised and immunohistochemistry analysis was performed using standard techniques. Briefly, tumors were fixed in formalin, embedded in paraffin, and tumor sections of 4 μm thickness were cut. After deparaffinization and hydration, the tumor sections were subjected to an antigen retrieval process in Tris buffer (pH 9.5). Sections were incubated with hydrogen peroxide (Sigma-Aldrich, St Louis, Mo.) for 10 minutes to block endogenous peroxidases. […]
Tumor sections were obtained and treated as described above. […] The bound antibody was detected using the immunohistochemistry protocol described above.

With “54F03: Fri domain of human FZD8 fused to human IgG1 Fc with GRA linker; SEQ ID NO:1” the “reduction of growth over control antibody” value ([1]; 1.5 mg/kg twice a week i.p.) was 52%, the “reduction in tumor growth over control antibody” value ([1]; 15 mg/kg twice weekly i.p.) was 83% and the “cells expressing sialomucins (alcian blue)” value [2] was “increase in cells expressing sialomucins”. For the same substance, the t1/2 in hours [3] was 162 h, the “reduction in tumor growth” value [4] was 66% and the “cells expressing CK20” value [5] was “increase in cells expressing CK20”.
